{"source": "patent US11472843B2", "about": "“Malacidins and methods of use” (The Rockefeller University, priority 2017, dated 2022)", "key": {"[1]": {"test_system": "Methicillin-resistant Staphylococcus aureus strain MW2", "assay": "Rat cutaneous wound infection model", "format": "in vivo, Sprague Dawley rats", "details": "topical, 0.5 mg daily in 25 mM CaCl2", "protocol": "Methicillin-resistant Staphylococcus aureus strain MW2 was grown in Mueller Hinton broth at 37° C. with shaking overnight. The culture was centrifuged, supernatant aspirated and the bacteria were gently washed once in sterile saline. The optical density was determined at 600 nm. The bacterial suspension was diluted to provide a challenge inoculum of approximately 500 CFU per wound in a volume of 0.05 ml in sterile 0.9% NaCl. The inoculum count was verified by viable counts on Mannitol Salt Agar plates spread with proper dilutions of the inoculum and incubated at 37° C. for 24-48 h. For the wound infection model, 8-week-old male (˜200 g) Sprague Dawley rats were given two wounds each. Two rats were used at each time point (day 1 and day 3) for each treatment group for a total of 4 rats (8 wounds) per drug. This sample size was statistically calculated on the basis of previous in-house wound burden studies comparing vehicle-treated groups with antibiotic controls. Rats were randomly selected into the treatment groups. […] At 1 day and 3 days post infection, the rats were humanely euthanized and wounds were excised and assessed for bacterial burdens by plating on MSA. […] Abnormal clinical signs were recorded if observed."}, "[2]": {"test_system": "Candida albicans ATCC 1884", "assay": "MIC assay, C. albicans", "format": "cell-based", "protocol": "(§1) MIC assays were performed in duplicate in 96-well microtiter plates on the basis of the protocol recommended by the Clinical and Laboratory Standards Institute (Cockerill, 2012, Clinical and Laboratory Standards Institute). All presented data are the average of at least three independent assays. Stock solutions of malacidin or daptomycin (2 mg ml^−1 in H2O) were added to the first well in a row and serially diluted (twofold per transfer) across the microtiter plate. CaCl2 was supplemented to media at a final concentration of 15 mM and fetal bovine serum (ATCC) was added to media (1:10) to test the effect of serum. Overnight cultures of bacteria were diluted 5,000-fold, and 50 μl was used as an inoculum in each well. MIC values were determined by visual inspection after 18 h incubation (30° C., static growth). For the enhanced calcium titration experiments, standard MIC assays were performed with methicillin-resistant Staphylococcus aureus (MRSA) PFGE strain type USA300 in media supplemented with CaCl2 at: 25.0, 18.8, 14.1, 7.03, 3.52, 2.50, 1.76, 0.880, 0.440, 0.250 and 0 mM. To assess the effects of monovalent and divalent cations on malacidin activity, standard MIC assays were performed with MRSA USA300 in media supplemented with 15 mM CaCl2, MgCl2, MnCl2, ZnCl2, SrCl2, NaCl and KCl. To evaluate the effects of pulmonary surfactants on activity against a community-acquired pneumonia-causing pathogen, standard MIC assays were performed with Streptococcus pneumoniae TCH8431 in media supplemented with both 15 mM CaCl1 and Survanta (beractant) at a final concentration of 5, 1, 0.5, 0.25 or 0% (volume/volume (v/v) percent)."}, "S. aureus COL": {"test_system": "S. aureus COL", "assay": "MIC assay, S. aureus COL", "format": "cell-based, Staphylococcus aureus", "details": "β-lactams", "protocol": "as §1"}, "[3]": {"test_system": "Lactobacillus rhamnosus NCTC 13031", "assay": "MIC assay, L. rhamnosus", "format": "cell-based", "protocol": "as §1, with “To evaluate the effects of pulmonary surfactants on activity against a community-acquired pneumonia-causing pathogen, standard MIC assays were performed with Streptococcus pneumoniae TCH8431 in media supplemented with both 15 mM CaCl1 and Survanta (beractant) at a final concentration of 5, 1, 0.5, 0.25 or 0% (volume/volume (v/v) percent).” left out"}}, "data": [{"substance": "malacidin A", "values": [{"measurement": "Bacterial burden in the wounds", "setting": "[1]; 24 hours post infection", "value": "no observed bacterial burdens"}, {"measurement": "Bacterial burden in the wounds", "setting": "[1]; 72 hours post infection", "value": "no observed bacterial burdens"}, {"measurement": "MIC", "setting": "[2]; C. albicans, 15 mM CaCl2", "value": ">100", "unit": "μg m1^−1"}, {"measurement": "MIC", "setting": "[2]; Candida albicans ATCC 1884", "value": ">100", "unit": "µg/mL"}, {"measurement": "MIC", "setting": "S. aureus COL; S. aureus COL, 15 mM CaCl2", "value": "0.2-0.8 μg m1^−1"}, {"measurement": "MIC", "setting": "S. aureus COL; Staphylococcus aureus COL", "value": "0.2 to 0.8", "unit": "µg/mL"}, {"measurement": "MIC", "setting": "[3]; L. rhamnosus, 15 mM CaCl2", "value": "0.1-0.2 μg m1^−1"}, {"measurement": "MIC", "setting": "[3]; Lactobacillus rhamnosus NCTC 13031", "value": "0.1 to 0.2", "unit": "µg/mL"}]}]}
